Measured values from ChEMBL document CHEMBL5236603, “Discovery of mobocertinib, a potent, oral inhibitor of EGFR exon 20 insertion mutations in non-small cell lung cancer” (Bioorg Med Chem Lett, 2023).

Columns and labels:
[1] = Inhibition of mouse EGFR D770_N771insNPG mutant stably expressed in mouse BaF3 cells assessed as cell viability incubated for 3 days by Cell Titer-Glo assay; type: cell-based; details: BaF3, 72 h
[2] = target: Receptor tyrosine-protein kinase erbB-4 (Homo sapiens) (UniProt Q15303); assay: Inhibition of human HER4 at 1 uM by hotspot assay relative to control
Sequence of Receptor tyrosine-protein kinase erbB-4 (Homo sapiens) (Q15303 whole entry): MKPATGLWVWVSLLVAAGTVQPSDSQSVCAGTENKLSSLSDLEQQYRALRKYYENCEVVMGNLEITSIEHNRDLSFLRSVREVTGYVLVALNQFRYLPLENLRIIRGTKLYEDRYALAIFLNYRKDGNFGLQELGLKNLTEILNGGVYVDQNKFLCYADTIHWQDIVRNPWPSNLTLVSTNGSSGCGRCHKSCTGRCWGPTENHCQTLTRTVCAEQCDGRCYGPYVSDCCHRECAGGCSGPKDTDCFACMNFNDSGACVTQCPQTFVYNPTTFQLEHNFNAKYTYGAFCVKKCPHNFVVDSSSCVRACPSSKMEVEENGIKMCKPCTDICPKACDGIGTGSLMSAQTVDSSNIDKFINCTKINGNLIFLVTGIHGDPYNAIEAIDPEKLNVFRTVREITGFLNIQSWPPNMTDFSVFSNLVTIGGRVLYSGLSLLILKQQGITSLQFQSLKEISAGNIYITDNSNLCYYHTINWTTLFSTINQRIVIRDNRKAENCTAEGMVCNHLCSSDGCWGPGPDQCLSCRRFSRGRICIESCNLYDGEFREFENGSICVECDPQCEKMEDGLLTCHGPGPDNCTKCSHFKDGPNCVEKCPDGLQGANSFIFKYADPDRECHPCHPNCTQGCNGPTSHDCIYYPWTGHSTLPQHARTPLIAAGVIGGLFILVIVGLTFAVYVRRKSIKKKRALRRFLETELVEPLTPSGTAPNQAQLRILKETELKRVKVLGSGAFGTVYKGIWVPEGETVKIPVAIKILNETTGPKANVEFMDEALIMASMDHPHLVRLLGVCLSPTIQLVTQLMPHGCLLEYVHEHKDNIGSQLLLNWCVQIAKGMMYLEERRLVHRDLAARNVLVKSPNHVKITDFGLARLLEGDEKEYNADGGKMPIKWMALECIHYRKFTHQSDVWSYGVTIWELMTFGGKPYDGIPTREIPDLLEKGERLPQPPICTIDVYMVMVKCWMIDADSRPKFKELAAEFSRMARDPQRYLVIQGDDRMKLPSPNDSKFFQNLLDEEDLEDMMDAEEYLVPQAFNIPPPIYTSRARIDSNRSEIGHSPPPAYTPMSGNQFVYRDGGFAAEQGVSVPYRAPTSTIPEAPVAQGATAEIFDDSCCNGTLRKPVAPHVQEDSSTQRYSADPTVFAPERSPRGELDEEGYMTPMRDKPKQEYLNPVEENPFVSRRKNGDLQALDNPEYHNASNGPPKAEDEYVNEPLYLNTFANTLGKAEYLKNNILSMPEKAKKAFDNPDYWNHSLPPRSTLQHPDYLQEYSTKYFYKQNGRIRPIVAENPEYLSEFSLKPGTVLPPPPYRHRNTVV

## C=CC(=O)Nc1cc(Nc2ncc(C(=O)OC(C)C)c(-c3cn(C)c4ccccc34)n2)c(OC)cc1N(C)CCN(C)C [MOBOCERTINIB]
[1]
  IC50: 4 nM
[2]
  inhibition: > 97%
